For six compounds, IC50 results are on record in EP0994104A1, “ARYL (SULFIDE, SULFOXIDE AND SULFONE) DERIVATIVES AND DRUGS CONTAINING THE SAME AS THE ACTIVE INGREDIENT” (ONO PHARMACEUTICAL CO., LTD., priority 1996, dated 1997).

The experiment deals with T1, gelatinase A (Homo sapiens, UniProt P08253).
T1 construct: endogenous in cells; host or cells: human normal skin dermal fibroblasts (HNDF)
T1 sequence (P08253 110-660): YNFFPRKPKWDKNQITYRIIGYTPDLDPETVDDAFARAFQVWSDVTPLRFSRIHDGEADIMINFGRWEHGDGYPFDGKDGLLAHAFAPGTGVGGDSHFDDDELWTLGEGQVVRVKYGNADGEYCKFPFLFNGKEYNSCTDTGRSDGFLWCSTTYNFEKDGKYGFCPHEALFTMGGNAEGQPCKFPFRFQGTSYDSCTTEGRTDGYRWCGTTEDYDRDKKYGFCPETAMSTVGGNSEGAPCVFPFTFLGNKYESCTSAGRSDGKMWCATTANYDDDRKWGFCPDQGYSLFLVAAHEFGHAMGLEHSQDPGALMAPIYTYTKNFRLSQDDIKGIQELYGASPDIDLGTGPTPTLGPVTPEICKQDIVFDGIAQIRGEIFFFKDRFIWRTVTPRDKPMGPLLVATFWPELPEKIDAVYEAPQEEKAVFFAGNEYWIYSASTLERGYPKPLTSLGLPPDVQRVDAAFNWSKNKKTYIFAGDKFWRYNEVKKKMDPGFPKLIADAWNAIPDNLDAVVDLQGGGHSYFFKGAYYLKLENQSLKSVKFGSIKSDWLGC
The experiment is described as follows: Inhibitory activity against gelatinase A (FITC-gelatin degradation, fluorescence). The experiment is classed as biochemical. The settings on record: progelatinase A purified from human normal skin dermal fibroblasts (HNDF), activated with APMA; 0.05 % FITC-gelatin, 2 hours at 37°C. The protocol: (1) Inhibitory activity against gelatinase A.
The progelatinase A (7 µl; in assay buffer (90 µl) was purified from human normal skin dermal fibroblasts (HNDF). It was activated by the addition of 10 mM APMA (10 µl) for 1 hour at 37°C. The solution of activated gelatinase A (1 U/tube, 98 µl) was mixed with the solution of various concentrations of the test compound or the solution in which the test compound is not added, (2 µl), and 0.05 % FITC-gelatin (100 µl) and incubated for 2 hours at 37°C. The enzymatic reaction was terminated by the addition of 2 M Tris-HCl (pH 9.5) containing 94.7% ethanol (750 µl). The mixture was stirred and then allowed to stand for 30 minutes at 0°C. The mixture was centrifuged for 30 minutes at 900 x g. Inhibitory activity against gelatinase was determined by measuring the fluorescent intensity in supernatant (Ex = 495 nm, and Em = 520 nm).
In the above experimental method, APMA is p-aminophenylmercuric acetate and FITC is fluorescein isothiocyanate.

What is called IC50 is the midpoint of a concentration-inhibition curve. Lower therefore signals higher potency. `COc1ccc(S(=O)(=O)CC(NC(=O)C(NC(=O)OC(C)(C)C)c2ccccc2)C(=O)NO)cc1` (stereo not drawn) [Example 19(1), N-hydroxy-2-[N-[N-(t-butoxycarbonyl)phenylglycyl]amino]-3-(4-methoxyphenylsulfonyl)propionamide]: half-maximal inhibition (IC50) required 11 nM.
For `O=C(O)CCS(=O)(=O)c1ccc(C#Cc2ccccc2)cc1` [Example 8(7), 3-[4-(phenylethynyl)phenylsulfonyl]propionic acid] the value was 400 nM; for `O=C(O)CCS(=O)(=O)c1ccc(NC(=O)c2ccccc2)cc1` [Example 8(2), 3-[4-(benzoylamino)phenylsulfonyl]propionic acid], 540 nM.
For the compound `CCCCCC#Cc1ccc(S(=O)(=O)CC(C)C(=O)NO)cc1` (stereo not drawn) [Example 28, N-hydroxy-2-methyl-3-[4-(1-heptynyl)phenylsulfonyl]propionamide], the concentration for half-maximal inhibition (IC50) amounted to 13 nM.
Next, `CC(CS(=O)(=O)c1ccc(-c2cc3ccccc3o2)cc1)C(=O)NO` (stereo not drawn) [Example 28(1), N-hydroxy-2-methyl-3-[4-(2-benzofuranyl)phenylsulfonyl]propionamide]: 1.4 nM.
Compound `Cc1ccc(C#Cc2ccc(S(=O)(=O)CC(C)C(=O)NO)cc2)cc1` (stereo not drawn) [Example 28(3), N-hydroxy-2-methyl-3-[4-(4-tolylethynyl)phenylsulfonyl]propionamide] had a 50% inhibitory concentration (IC50) of 2.9 nM.
